Paper PMC10513218, “Effect of Green and Red Thai Kratom (Mitragyna speciosa) on pancreatic digestive enzymes (alpha-glucosidase and lipase) and acetyl-carboxylase 1 activity: A possible therapeutic target for obesity prevention” (PLOS ONE, 2023)
Values joined by “and” are separate entries in the source; they are usually repeats but may differ in a detail not shown here. Equal entries are not always repeated. Where two headings read alike, the source gives them in different places.

Legend:
[1] = molecular target: T1, alpha-glucosidase (Saccharomyces cerevisiae, UniProt P53341); assay: Inhibition of alpha-glucosidase with pNPG as substrate; format: biochemical; conditions: for Mode of inhibition of alpha-glucosidase: Lineweaver-Burk plots
Procedure: Inhibition of alpha-glucosidase was performed using p-nitrophenol-α-D-glucopyranoside (pNPG) as a substrate. […] After 10 min, the reactions were started with the addition of pNPG at 0.007, 0.015, 0.03, 0.06, 0.125, 0.25, and 5 mM. The mode of inhibition and inhibition constant (Ki) were determined by Lineweaver-Burk plots.

[2] = test system: T2, ACC1; assay: ACC1 inhibition assay (ACC1 Assay Kit, acetyl-CoA decrease by HPLC); format: biochemical; conditions: for Effect on ACC1 activity: 0, 1, 10, 100 μM
T2 construct: purchased BPS Bioscience (USA)
Procedure: An ACC1 inhibition assay was performed using the ACC1 Assay Kit from BPS Bioscience (USA) following the manufacturer’s protocol. […] After a 10-minute pre-incubation period, the reaction was initiated by adding 0.1 ng/mL of ACC1 enzyme. The reactions were allowed to proceed for 40 minutes before being terminated by the addition of 100 μl of chilled acetonitrile. The samples were then centrifuged, and the supernatants were carefully transferred to new tubes for analysis. The rate of reaction was quantified by monitoring the decrease in acetyl-CoA substrate concentration using a C18 HPLC column, employing a mobile phase consisting of a linear gradient of water and methanol.

[3] = molecular target: T3, lipase (Homo sapiens, UniProt P16233); assay: Inhibition of lipase with pNPP as substrate; format: biochemical
T3 sequence (P16233 17-465): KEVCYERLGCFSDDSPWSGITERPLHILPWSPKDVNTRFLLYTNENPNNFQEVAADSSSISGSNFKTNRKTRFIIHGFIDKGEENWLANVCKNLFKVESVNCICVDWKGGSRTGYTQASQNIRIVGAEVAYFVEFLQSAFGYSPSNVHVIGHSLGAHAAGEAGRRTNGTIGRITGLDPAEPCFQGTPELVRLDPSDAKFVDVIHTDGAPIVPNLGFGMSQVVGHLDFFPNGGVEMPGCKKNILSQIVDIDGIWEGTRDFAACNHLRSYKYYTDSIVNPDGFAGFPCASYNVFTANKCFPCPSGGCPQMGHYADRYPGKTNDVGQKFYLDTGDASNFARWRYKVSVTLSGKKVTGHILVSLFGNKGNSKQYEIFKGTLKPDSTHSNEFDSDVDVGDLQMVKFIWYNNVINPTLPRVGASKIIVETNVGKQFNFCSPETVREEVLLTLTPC
Procedure: Inhibition of lipase was performed using p-nitrophenyl palmitate (pNPP) as a substrate. […] The IC50 was determined by plotting the remaining activity of lipase at each inhibitor concentration and […]. […] After 10 min, the reactions were started by the addition of pNPP at 0.02, 0.03, 0.06, 0.125, 0.25, 3.5 and 5 mM. The mode of inhibition and inhibition constant (Ki) were determined by Lineweaver-Burk plots.

[4] = molecular target: T1, alpha-glucosidase; design: method as in doi:10.1016/j.fshw.2014.11.003; conditions: cited from earlier work
[5] = HFD-induced rats, versus control group; cited from earlier work

T1 sequence (P53341 whole entry): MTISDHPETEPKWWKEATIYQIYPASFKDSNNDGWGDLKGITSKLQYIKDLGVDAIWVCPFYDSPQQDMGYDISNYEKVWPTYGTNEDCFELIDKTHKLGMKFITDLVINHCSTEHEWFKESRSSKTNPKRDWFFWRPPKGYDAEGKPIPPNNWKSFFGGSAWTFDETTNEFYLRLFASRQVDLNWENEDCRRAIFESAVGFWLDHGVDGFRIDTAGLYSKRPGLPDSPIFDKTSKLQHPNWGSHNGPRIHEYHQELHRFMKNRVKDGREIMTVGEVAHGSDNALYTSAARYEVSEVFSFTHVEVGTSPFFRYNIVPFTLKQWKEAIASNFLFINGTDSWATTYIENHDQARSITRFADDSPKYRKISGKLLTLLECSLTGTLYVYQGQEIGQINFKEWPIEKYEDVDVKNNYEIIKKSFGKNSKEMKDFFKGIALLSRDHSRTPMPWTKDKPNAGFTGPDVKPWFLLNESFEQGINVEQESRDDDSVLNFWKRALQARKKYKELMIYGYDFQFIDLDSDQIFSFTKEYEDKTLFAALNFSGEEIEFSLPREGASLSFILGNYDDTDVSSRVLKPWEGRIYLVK

SMILES | Mode of inhibition of alpha-glucosidase [1] | Effect on ACC1 activity [2] | Mode of inhibition of lipase ([3]; Lineweaver-Burk plots) | further results
C[C@H]1O[C@H](O[C@H]2[C@H](O)[C@@H](O)[C@@H](O[C@H]3[C@H](O)[C@@H](O)C(O)O[C@@H]3CO)O[C@@H]2CO)[C@H](O)[C@@H](O)[C@@H]1N[C@H]1C=C(CO)[C@@H](O)[C@H](O)[C@H]1O (some centres unmarked) [Acarbose, acarbose, reference compound] | Non-competitive inhibition |  |  | 
CCC1CN2CCc3c([nH]c4cccc(OC)c34)C2CC1/C(=C\OC)C(=O)OC (centres unmarked) [Mitragynine] | mix-typed inhibition | not and weak inhibitory effect | Competitive inhibition | IC50 [3]: 27.4 ± 2.9 µM; Ki ([3]; Ki lipase, Lineweaver-Burk plots, pNPP): 13.7 µM and 7 µM; Alpha-glucosidase IC50 lower than acarbose ([1]; ratio of acarbose IC50 to IC50): 7.3 fold
COc1ccc2c(c1)[nH]c1c3c(c(C)cc12)O[C@](C)(CCC=C(C)C)C=C3 [O-methyl mahanine] |  |  |  | IC50 [4]: 46.1 µM
CCCCCCCCCCC[C@@H](C[C@@H]1OC(=O)[C@H]1CCCCCC)OC(=O)[C@H](CC(C)C)NC=O [Orlistat, orlistat, reference compound] |  |  | Competitive inhibition | 
O=c1c(O)c(-c2ccc(O)c(O)c2)oc2cc(O)cc(O)c12 [Quercetin] |  | decreased ACC1 activity in a dose-dependent manner | Competitive inhibition | Plasma triglyceride [5]: lower than in the control group; Decrease of ACC1 activity ([2]; 100 μM): 60%
C[C@@H]1O[C@@H](OC[C@H]2O[C@@H](Oc3c(-c4ccc(O)c(O)c4)oc4cc(O)cc(O)c4c3=O)[C@H](O)[C@@H](O)[C@@H]2O)[C@H](O)[C@H](O)[C@H]1O [Rutin, rutin] |  |  |  | IC50 ([3]; pure compounds and positive control, pNPP at Km 1.3 mM, unit given, read-out: Half-maximal inhibitory concentration (IC50) Lipase): > 100 µM
